Reference: ChEMBL document CHEMBL1123017, “Synthesis and antifertility activity of zoapatanol analogues” (1985)

test system: Cavia porcellus; experiment: Compound was evaluated for contragestational activity in guinea pig after intraperitoneal administration; assay type: functional

SMILES | Contragestational activity
CC(C)CCC(O)C(C)CCC[C@]1(C)OC[C@]2(CC(=O)O)CC[C@H]1O2 (stereo partly specified) | <10 mg/kg
CC(C)=CCC(=O)C(C)CCC[C@]1(C)OC[C@]2(CCO)CC[C@H]1O2 (stereo partly specified) | <10 mg/kg
CC(C)=CCC(C)(O)C(C)CCC[C@]1(C)OC[C@]2(CC(=O)O)CC[C@H]1O2 (stereo partly specified) | <10 mg/kg
CC(C)=CCC(O)C(C)CCC[C@]1(C)OC[C@]2(CC=O)CC[C@H]1O2 (stereo partly specified) | <10 mg/kg
CC(C)=CCC(O)C(C)CCC[C@]1(C)OC[C@]2(CC(=O)O)CC[C@H]1O2 (stereo partly specified) | <10 mg/kg
COC(=O)C[C@@]12CC[C@@H](O1)[C@](C)(CCCC(C)C(O)CC=C(C)C)OC2 (stereo partly specified) | <10 mg/kg
CC(C)=CCC(=O)C(C)CCC[C@]1(C)OC[C@]2(CC(=O)O)CC[C@H]1O2 (stereo partly specified) | <10 mg/kg
CC(C)CCC(O)C(C)CCC[C@]1(C)OC[C@]2(CC=O)CC[C@H]1O2 (stereo partly specified) | <10 mg/kg
CC(C)=CCC(=O)C(C)CCC[C@]1(C)OC[C@]2(CC=O)CC[C@H]1O2 (stereo partly specified) | <10 mg/kg

test system: Cavia porcellus; experiment: Contragestational activity in guinea pig after intraperitoneal administration; Not Significant.; assay type: functional

SMILES | Contragestational activity
CC(=O)OC/C=C1\CCC(=O)[C@](C)(CCCC(C)C(=O)CC=C(C)C)OC1 (stereo partly specified) | >100 mg/kg
CC(CCC[C@]1(C)OC[C@]2(CC(=O)O)CC[C@H]1O2)C(=O)CC(C)C(C)C (stereo partly specified) | >100 mg/kg
C/C(=C\C(=O)C(C)CCC[C@]1(C)OC[C@]2(C(=O)O)CC[C@H]1O2)C(C)C (stereo partly specified) | >100 mg/kg
CC(CCC[C@]1(C)OC[C@]2(CC(=O)O)CC[C@H]1O2)C(=O)O (stereo partly specified) | >100 mg/kg
C#CC(O)(CC=C(C)C)C(C)CCC[C@]1(C)OC/C(=C/CO)CC[C@H]1O (stereo partly specified) | >100 mg/kg
C/C(=C\C(C)(O)C(C)CCC[C@]1(C)OC/C(=C/CO)CC[C@H]1O)C(C)C (stereo partly specified) | >100 mg/kg
CC(C)CCC(=O)C(C)CCC[C@]1(C)OCC(CCO)CC[C@H]1O (stereo partly specified) | >100 mg/kg
C/C(=C\C(=O)C(C)CCC[C@]1(C)OC/C(=C/CO)CC[C@H]1O)C(C)C (stereo partly specified) | >100 mg/kg
CC(CCC[C@]1(C)OC/C(=C/CO)CC[C@H]1O)C(=O)/C=C/C(C)(C)OO (stereo partly specified) | >100 mg/kg
COC(=O)/C=C1\CC[C@@H](OC(C)=O)[C@](C)(CCCC(C)C(O)CC=C(C)C)OC1 (stereo partly specified) | >100 mg/kg
COC(=O)C[C@@]12CC[C@@H](O1)[C@](C)(CCCC(C)CO)OC2 (stereo partly specified) | >100 mg/kg
CC(CCC[C@]1(C)OC/C(=C/CO)CC[C@H]1O)C(=O)/C=C/C(C)(C)O (stereo partly specified) | >100 mg/kg
C/C(=C\C(O)C(C)CCC[C@]1(C)OC/C(=C/CO)CC[C@H]1O)C(C)C (stereo partly specified) | >100 mg/kg
CC(=O)O[C@@H]1CCC(=O)CO[C@@]1(C)CCCC(C)C(=O)O (stereo partly specified) | >100 mg/kg
CC(CCC[C@]1(C)OC[C@]2(CC(=O)O)CC[C@H]1O2)C(=O)/C=C/C(C)(C)O (stereo partly specified) | >100 mg/kg
C=C[C@@]12CC[C@@H](O1)[C@](C)(CCCC(C)C(=O)CC=C(C)C)OC2 (stereo partly specified) | >100 mg/kg

test system: Cavia porcellus; experiment: Compound was evaluated for contragestational activity in guinea pig after intraperitoneal administration; Range is 10-25; assay type: functional

SMILES | Contragestational activity
C#CC(O)(CC=C(C)C)C(C)CCC[C@]1(C)OC[C@]2(CC(=O)O)CC[C@H]1O2 (stereo partly specified) | 10 mg/kg
CC(C)=CCC(O)C(C)CCC[C@]1(C)OC[C@]2(C(=O)O)CC[C@H]1O2 (stereo partly specified) | 10 mg/kg
CC(C)=CCC(C)(O)C(C)CCC[C@]1(C)OC/C(=C/CO)CC[C@H]1O (stereo partly specified) | 10 mg/kg
CC(=O)O[C@@H]1CC/C(=C\C=O)CO[C@@]1(C)CCCC(C)C(=O)CC=C(C)C (stereo partly specified) | 10 mg/kg
CC(C)CCC(O)C(C)CCC[C@]1(C)OC[C@]2(CCO)CC[C@H]1O2 (stereo partly specified) | 10 mg/kg
CC(C)=CCC(O)C(C)CCC[C@]1(C)OC/C(=C/CO)CC[C@H]1O (stereo partly specified) | 10 mg/kg

test system: Cavia porcellus; experiment: Compound was evaluated for contragestational activity in guinea pig after intraperitoneal administration; Range is 50-100; assay type: functional

SMILES | Contragestational activity
CC(=O)OC/C=C1\CC[C@@H](O)[C@](C)(CCCC(C)C(=O)CC=C(C)C)OC1 (stereo partly specified) | 50 mg/kg
CC(=O)OC/C=C1\CC[C@@H](OC(C)=O)[C@](C)(CCCC(C)C(O)CC=C(C)C)OC1 (stereo partly specified) | 50 mg/kg
CC(C)=CCC(O)C(C)CCC[C@]1(C)OC[C@]2(CCO)CC[C@H]1O2 (stereo partly specified) | 50 mg/kg
CC(C)=CCC(=O)C(C)CCC[C@]1(C)OC/C(=C/CO)CC[C@H]1O (stereo partly specified) | 50 mg/kg
C/C(=C\C(=O)C(C)CCC[C@]1(C)OC[C@]2(CC(=O)O)CC[C@H]1O2)C(C)C (stereo partly specified) | 50 mg/kg
CC(=O)OC/C=C1\CC[C@@H](OC(C)=O)[C@](C)(CCCC(C)C(=O)CC=C(C)C)OC1 (stereo partly specified) | 50 mg/kg

test system: Cavia porcellus; experiment: Compound was evaluated for contragestational activity in guinea pig after intraperitoneal administration; Range is 25-50; assay type: functional

SMILES | Contragestational activity
CC(C)CCC(=O)C(C)CCC[C@]1(C)OC[C@]2(CC(=O)O)CC[C@H]1O2 (stereo partly specified) | 25 mg/kg
CC(C)=CCC(=O)C(C)CCC[C@]1(C)OC[C@]2(C(=O)O)CC[C@H]1O2 (stereo partly specified) | 25 mg/kg
CC(=O)O[C@@H]1CC/C(=C\CO)CO[C@@]1(C)CCCC(C)C(=O)CC=C(C)C (stereo partly specified) | 25 mg/kg
CC(=O)OC/C=C1\CC[C@@H](OC(C)=O)[C@](C)(CCCC(C)C(CC=C(C)C)OC(C)=O)OC1 (stereo partly specified) | 50 mg/kg
